Results taken from US20110144348A1, “VOLTAGE-SENSITIVE DYE AND METHOD OF PREPARING THE SAME” (Electronics and Telecommunications Research Institute, priority 2009, published 2011).

Columns and labels:
[1] = used in vitro to dye a cell; cited from earlier work
[2] = sensitivity of the VSD according to an external voltage (FIGS. 4A and 4B); conditions: electrical stimulation=500 mA; compared with Di-4-ANEPPS
Excerpt: VSD according to an external voltage, and FIG. 4B is a diagram showing sensitivity of the VSD of the exemplary embodiment of the present invention according to an external voltage.
Referring to FIGS. 4A and 4B, sensitivities according to a voltage between the conventional VSD (Di-4-ANEPPS) in FIG. 4A and the VSD according to the exemplary embodiment of the present invention (ETRI-Di-8) in FIG. 4B are compared (electrical stimulation=500 mA).

| SMILES | sensitivity to an electric field [1] | voltage sensitivity relative to Di-4-ANEPPS [2] |
| --- | --- | --- |
| CCCCN(CCCC)c1ccc2cc(/C=C/c3cc[n+](CCCS(=O)(=O)[O-])cc3)ccc2c1 [Di-4-ANEPPS] | approximately 10 % per 100 mV | – |
| O=S1(=O)CCCO1 [ETRI-Di-8] | – | three |
